Measurements as given in patent US20200085839A1, “COMBINATION OF IMMUNOTHERAPEUTICS AND BISFLUOROALKYL-1,4-BENZODIAZEPINONE COMPOUNDS FOR TREATING LYMPHOMAS” (Ayala Pharmaceuticals Inc., priority 2018, published 2020).

Tested on: U266 cells (MM cell line)
Test: Cell-bound BCMA by flow cytometry
Type: cell-based, human
Conditions: 24 h, FIG. 1
Method: FIG. 1. Levels of cell-bound BCMA en multiple myelma (MM) cells Incubated with γ-secretase inhibitors (GSIs). U266 cells (MM cell line) were incubated with 0.3 nM, 0.5 nM, 1 nM or 3 nM of GSI (Compound 1, Compound 22, LY3039478 or PF3084014) for 24 hours, and BCMA levels were measured by flow cytometry.
For detecting levels of soluble and cell-bound BCMA, U266 cells (MM cell line) were seeded at 1×10^5 cells/well in a total volume of 250 μl into a 96-well plate. The cells were cultured in RPMI medium supplemented with 10% FCS. GSIs (Compound 1, Compound 22, LY3039478 (Lilly), and PF3084014 (Pfizer)) were added to U266 cell cultures at a concentration of 0.3 nM, 0.5 nM, 1 nM and 3 nM for soluble BCMA and at a concentration of […]. Following 24 hours of incubation at 37° C., the cells were collected, and BCMA levels were evaluated in both the cells (cell-bound BCMA) and the cell media (soluble BCMA). Cells were stained with an anti-BCMA antibody (PE anti-human CD269 BCMA, Biolegend). Soluble BCMA levels were analyzed by ELISA (Human BCMA/TNFRSF17 DuoSet kit: R&D Systems).

Compound | cell-bound BCMA levels
CCC[C@H](N[C@H]1CCc2cc(F)cc(F)c2C1)C(=O)Nc1cn(C(C)(C)CNCC(C)(C)C)cn1 [PF3084014, reference compound] | increased cell-bound BCMA levels
C[C@H](NC(=O)CCC(F)(F)F)C(=O)N[C@@H]1C(=O)N(CCO)c2ncccc2-c2ccccc21 [LY3039478, reference compound] | increased cell-bound BCMA levels
